Laboratory results published in paper PMC10762078, “Role of UPF1-LIN28A interaction during early differentiation of pluripotent stem cells” (Nature Communications, 2024).

What was measured:
[1] = test system: let-7a, let-7g, miR-16-5p and their targets in CHA15 cells; assay: RT-qPCR of mature LIN28A-regulated miRNAs and CDF of let-7-5p / miR-16-5p target mRNAs (Supplementary Fig. 6f); assay type: cell-based, human; conditions: CHA15
Experimental: (§1) cDNA was synthesised using RevertAid Reverse Transcriptase (Thermo Fisher Scientific, EP0441) with synthesised random hexamer (Macrogen) for total RNA or stem-loop primers for miRNA. For RT-qPCR reactions, the SensiFAST SYBR No-ROX kit (Meridian Bioscience) was used according to the manufacturer’s protocol. All data analysis and visualisation were conducted using R 3.6.1 [www.r-project.org] or GraphPad Prism 10. RT primers for miRNA and RT-qPCR primer sequences are provided in Supplementary Data 6.
Genes regulated by miRNA let-7-5p and miR-16-5p were determined by TargetScanHuman. Among miRNA targets sorted by cumulative weighted context++ score (CWCS)[57], the 100 top genes were selected and analysed using CDF. […]
Scatter
(bottom panel), respectively. f Levels of m ature endogenous m iRNAs in CHA15 cells, which were regulated by LIN28A, were assessed using RT -qPCR. Cum ulative f raction of log2 fold change in the expression of genes regulated by let-7-5p and m iR-16- 5p was shown as CDF graphs. T he relative level of m RNA was norm alised to that of U6 snRNA in (c, d, and f). K–S tests were used for e and f. Unpaired Student’s t-test was used for c , d, and f . * p < 0.05, ** p < 0.01, *** p < 0.001. Exact p -values were provided in Source data. Data are presented as m ean values ± SEM. All statistical test used were two- sided. T he m inim um num ber of independent biological replicate experim ents was a and e n = 2, b–d and f n = 3. T he experim ents were conducted three tim es, each iteration producing consistent results.

hPSCs = assay: RT-qPCR of pluripotency and germ-layer markers during differentiation with CPP-peptides (Supplementary Fig. 7b-e); assay type: cell-based, human; conditions: ectodermal differentiation
Experimental: For CPP-conjugated peptide delivery, HeLa, 293T, and PA-1 cells were incubated with CPP-conjugated peptides or CPP-FITC at 2 μM in DMEM with 10% FBS for 12 h a day before cell harvest. hPSCs were treated with CPP-conjugated peptides at 10 μM in mTeSR Plus Medium, and the peptide-containing medium was changed every day over 10 days. The ROCK inhibitor (Tocris Bioscience, Y-27632) treated-hPSCs were dissociated into single cells using Accutase (Merck, SCR005) and differentiated into ectoderm, mesoderm, and endoderm using the STEMdiff Trilineage Differentiation Kit ([…] Technologies, 05230) following the manufacturer’s protocol. Differentiated cells treated with CPP-conjugated peptides were analysed at 0, 3, and 5 days for ectoderm and endoderm, and at 0, 3, and 4 days for mesoderm. […]
as §1, with “Data 6. […]” for “Data 6.”
FPKM of each gene was presented f r om RNA-seq analysis. b–e hPSCs wer e treated with the indicated peptide during each germ la ye r differentiation. […]
An unpaired Student’s t-test was used for a–e. Data are presented as mean values ± SEM. All statistical test us ed wer e two-s ided. T he m inim um number of independent biological replicate experim ents was a–f n = 3. T he experiments wer e conducted three tim es, each iteration producing consistent results.

Sequence: KKKWCRKKKSSADEKRYRALKRTAERELLMNA [CPP-P8, CPP conjugated to P8]
- LIN28A-regulating miRNAs and their target mRNAs [1]: did not alter the expression of LIN28A-regulating miRNAs and their target mRNAs
- transcripts downregulated in ectodermal differentiation (hPSCs): downregulated the expression of genes closely associated with CNS development (DCX, NEUROD1, NOS2, and PAX3)
- transcripts upregulated in ectodermal differentiation (hPSCs): upregulated the essential transcription factors for retinal gliogenesis and NOTCH signalling (LHX2, NOTCH1, and DLK1)
